Results published in ChEMBL document CHEMBL1201862, “PubChem BioAssay data set” (2004).
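The compound was tested at five concentrations on cells cultured in 96-well plates, with a 48-hour exposure period. GI50: concentration for 50% inhibition of growth.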 Active and inactive are the calls of the source. Rule as the data show it: active = GI50 up to about 1.1 µM and inactive = higher.

Columns and labels:
Assay in all cases: NCI anticancer screen, dose series, 48 h
[1] = tested on: HCC 2998
[2] = tested on: CCRF-CEM
[3] = tested on: NCI-H23
[4] = tested on: UACC-257
[5] = tested on: A498
[6] = tested on: RPMI-8226
[7] = tested on: SN12C
[8] = tested on: IGROV-1
[9] = tested on: 786-0
[10] = tested on: COLO 205
[11] = tested on: UO-31
[12] = tested on: CAKI-1
[13] = tested on: EKVX
[14] = tested on: HOP-62
[15] = tested on: LOX IMVI
[16] = tested on: SK-MEL-28

Structure (SMILES)	GI50 [1]	GI50 [2]	GI50 [3]	GI50 [4]	GI50 [5]	GI50 [6]	GI50 [7]	GI50 [8]	GI50 [9]	GI50 [10]	GI50 [11]	GI50 [12]	GI50 [13]	GI50 [14]	GI50 [15]	GI50 [16]
Cn1cnc2[nH]c(=O)[nH]c(=S)c21	> 100 µM (inactive)	> 100 µM (inactive)	> 100 µM (inactive)	> 100 µM (inactive)	> 100 µM (inactive)	> 100 µM (inactive)	> 100 µM (inactive)	> 100 µM (inactive)	> 100 µM (inactive)	> 100 µM (inactive)	> 100 µM (inactive)	> 100 µM (inactive)	> 100 µM (inactive)	> 100 µM (inactive)	–	–
O=C1C(c2ccccc2)=C(c2ccccc2)C(c2ccc(Cc3ccc(C4=C(c5ccccc5)C(=O)C(c5ccccc5)=C4c4ccccc4)cc3)cc2)=C1c1ccccc1	–	> 100 µM (inactive)	> 100 µM (inactive)	64.9 µM (inactive)	> 100 µM (inactive)	> 100 µM (inactive)	–	> 100 µM (inactive)	> 100 µM (inactive)	> 100 µM (inactive)	> 100 µM (inactive)	> 100 µM (inactive)	> 100 µM (inactive)	> 100 µM (inactive)	> 100 µM (inactive)	–
NC(CCCCN/C=C1/N=C(c2ccccc2)OC1=O)C(=O)O (configuration not stated)	> 100 µM (inactive)	52 µM (inactive)	> 100 µM (inactive)	> 100 µM (inactive)	> 100 µM (inactive)	> 100 µM (inactive)	> 100 µM (inactive)	> 100 µM (inactive)	> 100 µM (inactive)	> 100 µM (inactive)	> 100 µM (inactive)	–	> 100 µM (inactive)	> 100 µM (inactive)	> 100 µM (inactive)	> 100 µM (inactive)
C/C(=N\NC(=N)N)C(CN(CC(C)C)CC(C)C)C(=O)Nc1ccc(C)cc1C (configuration not stated)	> 100 µM (inactive)	> 100 µM (inactive)	> 100 µM (inactive)	> 100 µM (inactive)	> 100 µM (inactive)	–	> 100 µM (inactive)	> 100 µM (inactive)	> 100 µM (inactive)	> 100 µM (inactive)	54.7 µM (inactive)	> 100 µM (inactive)	81.5 µM (inactive)	> 100 µM (inactive)	> 100 µM (inactive)	> 100 µM (inactive)
NNC(=O)C(=O)N/N=C(\CCC(=O)Nc1ccc(Cl)cc1)Cc1nc2ccccc2s1	44.7 µM (inactive)	3.32 µM (inactive)	30.9 µM (inactive)	32.9 µM (inactive)	52 µM (inactive)	25.6 µM (inactive)	34.6 µM (inactive)	13.6 µM (inactive)	17.3 µM (inactive)	32.7 µM (inactive)	11.9 µM (inactive)	38.2 µM (inactive)	27.4 µM (inactive)	53.2 µM (inactive)	17.7 µM (inactive)	71.8 µM (inactive)
O=C(N/C(=C\c1ccc([N+](=O)[O-])cc1)c1nc2c(O)nc(S)nc2[nH]1)c1ccccc1	> 100 µM (inactive)	92.3 µM (inactive)	> 100 µM (inactive)	–	–	–	> 100 µM (inactive)	> 100 µM (inactive)	> 100 µM (inactive)	> 100 µM (inactive)	30.8 µM (inactive)	> 100 µM (inactive)	> 100 µM (inactive)	–	–	> 100 µM (inactive)
COC(=O)NC(=O)c1cn(C2OC(CO)C(O)C2O)c(=O)[nH]c1=O (configuration not stated)	> 100 µM (inactive)	–	> 100 µM (inactive)	> 100 µM (inactive)	–	> 100 µM (inactive)	> 100 µM (inactive)	> 100 µM (inactive)	> 100 µM (inactive)	> 100 µM (inactive)	> 100 µM (inactive)	> 100 µM (inactive)	–	> 100 µM (inactive)	> 100 µM (inactive)	> 100 µM (inactive)
O=c1c2ccccc2c(=O)n2n1-c1cccc(c1)CSSCc1cccc-2c1	> 10 µM (inactive)	> 10 µM (inactive)	> 10 µM (inactive)	> 10 µM (inactive)	> 10 µM (inactive)	> 10 µM (inactive)	> 10 µM (inactive)	> 10 µM (inactive)	58.3 µM (inactive)	> 10 µM (inactive)	> 10 µM (inactive)	> 10 µM (inactive)	> 10 µM (inactive)	> 10 µM (inactive)	> 100 µM (inactive)	> 10 µM (inactive)
CC(=O)NNc1nc(C)c(C(=O)/C=C/c2ccccc2Cl)s1	> 100 µM (inactive)	> 100 µM (inactive)	> 100 µM (inactive)	> 100 µM (inactive)	> 100 µM (inactive)	> 100 µM (inactive)	> 100 µM (inactive)	> 100 µM (inactive)	> 100 µM (inactive)	> 100 µM (inactive)	> 100 µM (inactive)	> 100 µM (inactive)	> 100 µM (inactive)	> 100 µM (inactive)	> 100 µM (inactive)	> 100 µM (inactive)
Nc1ccc(C(=O)N/C(=C\C=C\c2ccco2)c2nc3c4c(ccc3[nH]2)C(=O)c2ccccc2C4=O)cc1	44.9 µM (inactive)	1.09 µM (active)	41.5 µM (inactive)	> 100 µM (inactive)	22.4 µM (inactive)	3.21 µM (inactive)	29.4 µM (inactive)	21.4 µM (inactive)	30.3 µM (inactive)	61.1 µM (inactive)	2.34 µM (inactive)	24.6 µM (inactive)	28.1 µM (inactive)	56.2 µM (inactive)	25.5 µM (inactive)	36.6 µM (inactive)
CCCCCCCCCCCCOC(=N)N1CCOCC1	10.5 µM (inactive)	2.26 µM (inactive)	13.4 µM (inactive)	9.35 µM (inactive)	6.59 µM (inactive)	1.87 µM (inactive)	4.39 µM (inactive)	12.6 µM (inactive)	14.1 µM (inactive)	1.75 µM (inactive)	13.5 µM (inactive)	4.13 µM (inactive)	12.9 µM (inactive)	17.3 µM (inactive)	14.5 µM (inactive)	12.2 µM (inactive)
OCCN(CCO)c1cccc(N(CCO)CCO)c1	–	> 100 µM (inactive)	> 100 µM (inactive)	> 100 µM (inactive)	> 100 µM (inactive)	> 100 µM (inactive)	–	–	> 100 µM (inactive)	> 100 µM (inactive)	28.6 µM (inactive)	> 100 µM (inactive)	> 100 µM (inactive)	> 100 µM (inactive)	> 100 µM (inactive)	> 100 µM (inactive)
CC(C)c1cccc(C(C)C)c1NC(=O)C(=O)Cc1nc2ccc([N+](=O)[O-])cc2nc1O	39.6 µM (inactive)	18.6 µM (inactive)	31.9 µM (inactive)	69.2 µM (inactive)	58.5 µM (inactive)	–	–	> 100 µM (inactive)	> 100 µM (inactive)	41.8 µM (inactive)	> 100 µM (inactive)	75.3 µM (inactive)	44.2 µM (inactive)	–	23.2 µM (inactive)	86.1 µM (inactive)
